Legend:
Type in all cases: cell-based, human
Jurkat cells = test: NeuAz expression on the cell surface by SPAAC with DBCO-Cy5 and flow cytometry, competition with Ac4ManNAz (1c); conditions: for NeuAz expression / DBCO-Cy5 signal, compound alone: 50 μM alone; for extent of suppression of NeuAz expression by 1c: 50 μM co-incubated with 1c, study parallel to GalNAz; for NeuAz expression, % of controls: 50 μM with 1c 50 μM, simultaneous addition; for reduction of NeuAz, simultaneous addition: analogue 10 μM and 1c 50 μM added simultaneously
Description: FIG. 5 illustrates competitive processing by compounds of the present invention (ManNAc compounds). ManNAc compounds competitively reduce the expression of N-azidoacetyl-D-neuraminic acid (NeuAz)-carrying sialoglycans through the metabolic processing of Ac4ManNAz. Jurkat (human T-lymphoma) cells were incubated with Ac4ManNAz (Z) (50 μM) alone, co-incubated with GL-2, GL-3, MA-2, or MA-3 (at various concentrations such as 10,
25, and 50 μM) for 24 h. Expression of N-azidoacetyl-D-neuraminic acid (NeuAz) on the cell surface sialoglycans was estimated using strain-promoted azide-alkyne cycloaddition (SPAAC) with DBCO-Cy5 and analyzed by flow cytometry. […] GL-2 was used for comparative study and the structure of this compound is as below.
Jurkat cells (3.0×10^5 cells/mL; 2.5 mL per well in 6-well plates) in complete medium were treated with either vehicle (D) or Compound 1c; Untreated Jurkat cells, without addition of vehicle, were also included as additional controls. Cells were harvested at 48 h, washed thrice with PBS (3×0.5 mL) (3000×g, 2.0 min). Prior to the last wash cells were counted and were aliquoted to 1.0×10^6 cells per sample in 1.5 mL microcentrifuge tubes and centrifuged. The cells were gently resuspended in PBS ([…]) and treated with DBCO-Cy5 ([…]) and incubated at 37° C. (on a Torrey-Pines dry heating bath with mild shaking). After one hour, the cells were washed using FSB (0.5 mL, 3000×g, 2.0 min, room temperature), resuspended in PBS (250 mL), treated with PI (2.5 mg/mL), and analyzed using BD FACSCanto and FACSDiva Version 6.1.3. The cells were gated for PI-negative population for 10,000 events. Two replicate samples were prepared for each conditions and each sample was counted twice.
Estimation of NeuAz expression by 1c in the presence of peracetylated ManNAc analogues: Jurkat cells (3.0×10^5 cells/mL in 3.0 mL per well in 6-well plates) were incubated with (i) D, (ii) 1a, 1b, 1c, or 1d alone (50 mM) or (iii) 1a, 1b, or 1d (50 mM) in combination with 1c (50 mM). After 24 h, cells were harvested, washed using FSB, aliquoted to 5.0×10^5 cells per sample, and processed as mentioned above for estimation of NeuAz expression using DBCO-Cy5 ([…]). Experiments using HL-60 cells were performed using the same procedure. […]
Effect of GlcNAc and ManNAc analogues on NeuAz expression: Jurkat cells were treated with 1a, 1b, 2a, or 2b (10, 25, and 50 mM for each analogue) in combination with 1c (50 mM). Cells treated with 1c (50 mM) alone were considered as a reference. After 24 h, cells were harvested, processed, labelled with DBCO-Cy5 ([…]), and analysed by flow cytometry as mentioned above.
In order to evaluate the metabolism, Jurkat (human T-lymphoma) cells were selected and incubated with ManNAc analogues either alone (50 μM) or in combination with 1c (50 μM) for 48 h. Expression of NeuAz on cell surface was estimated by flow cytometry through the copper-free bio-orthogonal strain-promoted azide-alkyne cycloaddition (SPAAC) reaction using dibenzocyclooctyne-Cy5 (DBCO-Cy5). The conditions for click reaction were optimized for various concentrations of DBCO-Cy5 and time course of SPAAC reaction in Jurkat cells. Based on the optimization results, incubation time of 30 min at 37° C. for 5.0×10^5 cells (pre-incubated with 1c for 48 h) with 20 μM of DBCO-Cy5 in 100 μL total volume for experiments with ManNAc analogues was chosen. […] In order to test the dose-dependency of this inhibitory effect on NeuAz expression and to establish competitive metabolic processing, Jurkat cells were first treated with either 1a or 1b (0-50 μM) followed by addition of 1c (50 μM) at 12 h and estimation of NeuAz at 48 h. As expected, the suppression of NeuAz expression was substantially higher when added with a 12 h delay compared to simultaneous addition, in a dose-dependent manner. […] By contrast simultaneous addition resulted only in a 10% reduction of NeuAz for both 1a and 1b (FIG. 6C and FIG. 7B).

HL-60 cells [1] = test: Total and glycoside bound sialic acids by periodate-resorcinol assay; conditions: 100 μM, 48 h
Description: Total sialic acids were measured following reported procedures. HL-60 cells (3.0×10^5 cells/mL in 10 mL complete medium in 10 cm diameter Petri dishes) were incubated with D, 1a, 1b, 1c, 1d, 1e, 1f, 1g, 2a, or 2b (100 mM each), along with untreated (U) controls. After 48 h, cells were harvested, washed with PBS (3×5.0 mL; 3000×g, for 2.0 min), aliquoted to 2×10^6 cells per sample and resuspended in PBS (150 mL) in 1.5 mL microcentrifuge tubes. Cells were lyzed by three freeze-thaw cycles and the total lysates were subjected to periodate-resorcinol assay. Briefly, lysates (150 mL) were treated with 0.4 M aqueous periodic acid (6.67 mM) or (2.5 mL) and incubated either on ice for 15 min (for measurement of total sialic acids) or at 37° C. for 1.0 h (for measurement of glycoconjugate bound sialic acids). About 10 mL of reagent cocktail was prepared using 6% w/v of aqueous resorcinol (1.0 mL), 2.5 mM copper (II) sulfate (1.0 mL), 44% of concentrated hydrochloric acid (4.4 mL), and water (3.6 mL). The mixture was then treated with the reagent cocktail (250 mL per sample), boiled at 100° C. for 10 min, rapidly quenched in an ice-bath and treated with tert-butanol (250 mL). The contents were centrifuged and the supernatants were aliquoted (200 mL) into 96-well plates and the absorbance at 630 nm was measured. At least three replicates were prepared for each condition.

HL-60 cells [2] = test: Far-western blot of total lysates with biotinylated MAL-II; conditions: HL-60 lysates; 50 μM, 72 h
Description: After 72 h, cells were harvested and lyzed in RIPA buffer containing PIC. Protein concentration in the soluble fraction was estimated using Bradford assay, subjected to 10% SDS-PAGE, blotted onto nitrocellulose membranes (constant current 250 mA, 3 h, 4° C.). Membranes were blocked using 2% w/v gelatin (5.0 mL) in 0.1% PBS-T at room temperature. After 1h, membranes were incubated with either bMAL-II (1:2000, stock conc. 1.0 mg/mL) or bSNA (1:5000, stock conc. 2.0 mg/mL) in 0.1% PBS-T (5.0 mL) at room temperature. After 1 h, membranes were washed using 0.1% PBS-T (6×5.0 mL, 5.0 min), followed by incubation with HRPconjugated avidin (1:50000, stock conc. 2.0 mg/mL) in 0.1% PBS-T (5.0 mL). After 30 min, membranes were washed using 0.1% PBS-T (6×5.0 mL, 5.0 min). Blots were developed using enhanced chemiluminescence substrate and photographic films. Blots using anti-β-actin (as mentioned above) were performed in parallel as loading controls. At least two independent replicate experiments were performed.

[3] = 50 μM co-incubated with 1c 50 μM, 48 h

Row | Structure (SMILES) | NeuAz expression / DBCO-Cy5 signal, compound alone (Jurkat cells; 48 h) | NeuAz expression (1c alone taken as 100%) (Jurkat cells; [3]) [%] | reduction of NeuAz expression (Jurkat cells; [3]) [%] | increase in glycoside bound sialic acid levels (HL-60 cells [1]) [%] | increase in total sialic acid levels vs untreated cells (HL-60 cells [1]) [fold] | ratio of total sialic acids to glycoside bound sialic acids vs untreated cells (HL-60 cells [1]) | MAL-II epitopes in lectin blot (HL-60 cells [2]) | extent of suppression of NeuAz expression by 1c (Jurkat cells) [%] | NeuAz expression, % of controls (Jurkat cells; 24 h) [%] | reduction of NeuAz, simultaneous addition (Jurkat cells) [%] | decrease in glycoside bound sialic acid levels (HL-60 cells [1]) [%] | NeuAz expression upon co-incubation with Ac4ManNAz (Jurkat cells; Ac4ManNAz (Z) 50 μM plus analogue at 10, 25, 50 μM, 24 h, listed as MA-2)
1 | CC(=O)NC1C(OC(C)=O)OC(COC(C)=O)[C@@H](OC(C)=O)[C@@H]1OC(C)=O (stereo partly drawn) [Compound 1d, 1,3,4,6-tetra-O-acetyl-2-acetylamino-2-deoxy-α/β-D-mannopyranose] | negligible signals | 30 | 70 | ~10 | 2.0 | higher ratios of free sialic acid | below detection limit | – | – | – | – | –
2 | CC(=O)OC[C@H]1OC(OC(C)=O)[C@@H](NC(=O)C2CCC2)[C@@H](OC(C)=O)[C@@H]1OC(C)=O (stereo partly drawn) [Compound 1b, (3S,4R,5S,6R)-6-(acetoxymethyl)-3-(cyclobutanecarboxamido)tetrahydro-2H-pyran-2,4,5-triyl triacetate] | negligible signals | 65 | – | – | – | higher ratios of free sialic acid | slight increase | 50 | 50 | 10 | ~10 | –
3 | CC(=O)OC[C@H]1O[C@H](OC(C)=O)[C@@H](NC(=O)C2CC2)[C@@H](OC(C)=O)[C@@H]1OC(C)=O [Compound 1a, 1,3,4,6-tetra-O-acetyl-2-cyclopropanoylamino-2-deoxy-α-D-mannopyranose] | negligible signals | 60 | – | – | – | higher ratios of free sialic acid | slight increase | 50 | 60 | 10 | ~10 | reduced competitively in a dose-dependent manner
